This data set concerns CCRIS mutagenicity, Ames/micronucleus/aberration tests. Kind of data set: CCRIS mutagenicity studies.
Where [1] appears, read: Test System: AMES SALMONELLA TYPHIMURIUM, Strain/Indicator: TA98(1,8-DNP6), Metabolic Activation: RAT, LIVER, S-9, Method: STANDARD PLATE.
[2] abbreviates: Test System: AMES SALMONELLA TYPHIMURIUM, Strain/Indicator: TA98, Metabolic Activation: NONE, Method: STANDARD PLATE.
Where [3] appears, read: Test System: AMES SALMONELLA TYPHIMURIUM, Strain/Indicator: TA98, Metabolic Activation: RAT, LIVER, S-9, Method: STANDARD PLATE.
Setting [4] is: Test System: AMES SALMONELLA TYPHIMURIUM, Strain/Indicator: TA100, Metabolic Activation: NONE, Method: STANDARD PLATE.
Setting [5] is: Test System: AMES SALMONELLA TYPHIMURIUM, Strain/Indicator: TA1538, Metabolic Activation: NONE, Method: STANDARD PLATE.

Our source for the mutagenic call values is PubChem BioAssay AID1259407 (Chemical Carcinogenesis Research Information System (CCRIS), 2018).

Calls of active or inactive are those of the source. The rule behind the calls is not given here.

For the compound `Cc1cc2ncccc2c2nc(N)n(C)c12`, the mutagenic call by setting is: (End Point: IN VITRO MICRONUCLEUS, Test System: CHL/IU CELLS, Metabolic Activation: RAT, LIVER, S-9, PHENOBARBITAL AND 5,6-BENZOFLAVONE) “active; positive”; under setting [1], “inactive; negative”; (Test System: AMES SALMONELLA TYPHIMURIUM, Strain/Indicator: TA98, Metabolic Activation: HAMSTER, LIVER, HEPATOCYTES, Method: STANDARD PLATE) “active; positive”; (Test System: AMES SALMONELLA TYPHIMURIUM, Strain/Indicator: TA98, Metabolic Activation: HUMAN, BLOOD, CYTOSOL, Method: PREINCUBATION) “active; positive”; (Test System: AMES SALMONELLA TYPHIMURIUM, Strain/Indicator: TA98, Metabolic Activation: NONE, Method: PREINCUBATION) “inactive; negative”; under setting [2], “inactive; negative”. For the same compound, the mutagenic call reads like this: (Test System: AMES SALMONELLA TYPHIMURIUM, Strain/Indicator: TA98, Metabolic Activation: RAT, LIVER, HEPATOCYTES, AROCLOR 1254, Method: PREINCUBATION) “active; positive”; (Test System: AMES SALMONELLA TYPHIMURIUM, Strain/Indicator: TA98, Metabolic Activation: RAT, LIVER, HEPATOCYTES, Method: PREINCUBATION) “active; positive”; (Test System: AMES SALMONELLA TYPHIMURIUM, Strain/Indicator: TA98, Metabolic Activation: RAT, LIVER, HEPATOCYTES, Method: STANDARD PLATE) “active; positive”; (Test System: AMES SALMONELLA TYPHIMURIUM, Strain/Indicator: TA98, Metabolic Activation: RAT, LIVER, S-9, AROCLOR 1254, Method: PREINCUBATION) “active; positive”; (Test System: AMES SALMONELLA TYPHIMURIUM, Strain/Indicator: TA98, Metabolic Activation: RAT, LIVER, S-9, N-BENZYLIMIDAZOLE, Method: PREINCUBATION) “active; positive”; under setting [3], “active; positive”. Further, the mutagenic call is “active; positive” (Test System: AMES SALMONELLA TYPHIMURIUM, Strain/Indicator: TA98, Metabolic Activation: S-9, Method: STANDARD PLATE); “active; positive” (Test System: AMES SALMONELLA TYPHIMURIUM, Strain/Indicator: TA98, Method: STANDARD PLATE); “inactive; negative” (Test System: AMES SALMONELLA TYPHIMURIUM, Strain/Indicator: TA100, Metabolic Activation: NONE, Method: PREINCUBATION); “inactive; negative” under setting [4]; “active; positive” (Test System: AMES SALMONELLA TYPHIMURIUM, Strain/Indicator: TA100, Metabolic Activation: RAT, LIVER, S-9, AROCLOR 1254, Method: PREINCUBATION); “active; positive” (Test System: AMES SALMONELLA TYPHIMURIUM, Strain/Indicator: TA100, Metabolic Activation: RAT, LIVER, S=9, AROCLOR 1254, Method: PREINCUBATION). Also, the mutagenic call runs as follows: (Test System: AMES SALMONELLA TYPHIMURIUM, Strain/Indicator: TA100, Metabolic Activation: S-9, Method: STANDARD PLATE) “active; positive”; (Test System: CHINESE HAMSTER V-79, Strain/Indicator: V-79/6-THIOGUANINE, Metabolic Activation: HAMSTER, PANCREAS DUCT, EPITHELIAL CELLS) “active; positive”; (Test System: CHINESE HAMSTER V-79, Strain/Indicator: V-79/6-THIOGUANINE, Metabolic Activation: HUMAN, PANCREAS DUCT, EPITHELIAL CELLS) “active; positive”; (Test System: CHINESE HAMSTER V-79, Strain/Indicator: V-79/6-THIOGUANINE, Metabolic Activation: RAT, LIVER, HEPATOCYTES, AROCLOR 1254) “active; positive”; (Test System: UDS HAMSTER HEPATOCYTES, Strain/Indicator: THY INCORP, Metabolic Activation: NONE, Method: LIQUID SCINTILLATION COUNTING) “active; positive”; (Test System: UDS HUMAN HEPATOCYTES, Strain/Indicator: THY INCORP, Metabolic Activation: NONE, Method: AUTORADIOGRAPHY) “active; positive”. Further, the mutagenic call (Test System: UDS MOUSE HEPATOCYTES, Strain/Indicator: THY INCORP, Metabolic Activation: NONE, Method: AUTORADIOGRAPHY) was “active; positive”; the mutagenic call (Test System: UDS RAT HEPATOCYTES, Strain/Indicator: THY INCORP, Metabolic Activation: NONE, Method: AUTORADIOGRAPHY) was “active; positive”; the mutagenic call (Test System: UDS RAT HEPATOCYTES, Strain/Indicator: THY INCORP, Metabolic Activation: NONE, Method: LIQUID SCINTILLATION COUNTING) was “active; positive”.
On to `CCCOc1cc(N=Nc2ccccc2)ccc1N=Nc1c(S(=O)(=O)O)cc2ccc(N)cc2c1O`, for which the mutagenic call under setting [2] was “inactive; negative”; the mutagenic call (Test System: AMES SALMONELLA TYPHIMURIUM, Strain/Indicator: TA98, Metabolic Activation: RAT, LIVER, S-9, AROCLOR 1254, Method: STANDARD PLATE) was “active; positive”; the mutagenic call under setting [4] was “inactive; negative”; the mutagenic call (Test System: AMES SALMONELLA TYPHIMURIUM, Strain/Indicator: TA100, Metabolic Activation: RAT, LIVER, S-9, AROCLOR 1254, Method: STANDARD PLATE) is “inactive; negative”; the mutagenic call under setting [5] was “inactive; negative”; the mutagenic call (Test System: AMES SALMONELLA TYPHIMURIUM, Strain/Indicator: TA1538, Metabolic Activation: RAT, LIVER, S-9, AROCLOR 1254, Method: STANDARD PLATE) is “active; positive”.
On to `NC(=O)N/N=C/c1ccco1`, for which the mutagenic call (Test System: E. COLI, Strain/Indicator: WP2 UVRA, Metabolic Activation: NONE, Method: SPOT) is “active; positive”.
As for `CC(C)=CC(=O)C=C(C)C`, the mutagenic call (Test System: MOUSE LYMPHOMA, Strain/Indicator: L5178Y (TK+/TK-), Metabolic Activation: NONE, Method: SUSPENSION/PLATE) is “inactive; negative”.
`C/C=C(\Cl)C1=C(Cl)C(=O)[C@]23C[C@H]2C(C)(C)O[C@]3(O)C1=O`: the mutagenic call is “inactive; negative” (Test System: AMES SALMONELLA TYPHIMURIUM, Strain/Indicator: TA97, Metabolic Activation: NONE); “inactive; negative” (Test System: AMES SALMONELLA TYPHIMURIUM, Strain/Indicator: TA98, Metabolic Activation: NONE); “active; positive” (Test System: AMES SALMONELLA TYPHIMURIUM, Strain/Indicator: TA100, Metabolic Activation: NONE); “active; positive” (Test System: AMES SALMONELLA TYPHIMURIUM, Strain/Indicator: TA102, Metabolic Activation: NONE).
With `CN(C)CCCNc1c2ccccc2nc2ccc([N+](=O)[O-])cc12`, the mutagenic call (Test System: AMES SALMONELLA TYPHIMURIUM, Strain/Indicator: TA98(1,8-DNP6), Metabolic Activation: NONE, Method: STANDARD PLATE) was “active; positive”; the mutagenic call under setting [1] is “active; positive”; the mutagenic call (Test System: AMES SALMONELLA TYPHIMURIUM, Strain/Indicator: TA98(NR), Metabolic Activation: NONE, Method: STANDARD PLATE) is “active; positive”; the mutagenic call (Test System: AMES SALMONELLA TYPHIMURIUM, Strain/Indicator: TA98(NR), Metabolic Activation: RAT, LIVER, S-9, Method: STANDARD PLATE) is “active; positive”; the mutagenic call under setting [2] was “active; positive”; the mutagenic call under setting [3] is “active; positive”. Further, the mutagenic call runs as follows: under setting [4], “active; positive”; (Test System: AMES SALMONELLA TYPHIMURIUM, Strain/Indicator: TA1535, Metabolic Activation: NONE, Method: STANDARD PLATE) “active; positive”; (Test System: AMES SALMONELLA TYPHIMURIUM, Strain/Indicator: TA1537, Metabolic Activation: NONE, Method: STANDARD PLATE) “active; positive”; (Test System: AMES SALMONELLA TYPHIMURIUM, Strain/Indicator: TA1537 PKM101, Metabolic Activation: NONE, Method: STANDARD PLATE) “active; positive”; under setting [5], “active; positive”; (Test System: CHINESE HAMSTER V-79, Strain/Indicator: V-79/6-THIOGUANINE, Metabolic Activation: NONE, Method: STANDARD PLATE) “inactive; negative”. The mutagenic call reads like this: (Test System: CHINESE HAMSTER V-79, Strain/Indicator: V-79/OUABAIN, Metabolic Activation: NONE, Method: STANDARD PLATE) “inactive; negative”; (Test System: Escherichia coli, Strain/Indicator: CC107 (G6 to G7 frameshifts), Metabolic Activation: None, Method: Modified preincubation) “active; positive”; (Test System: Escherichia coli, Strain/Indicator: CC108 (G6 to G5 frameshifts), Metabolic Activation: None, Method: Modified preincubation) “active; positive”; (Test System: Escherichia coli, Strain/Indicator: CC109 (CG5 to CG4 frameshifts), Metabolic Activation: None, Method: Modified preincubation) “active; positive”; (Test System: Escherichia coli, Strain/Indicator: CC111 (A7 to A6 frameshifts), Metabolic Activation: None, Method: Modified preincubation) “active; positive”.
